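Results reflect a 48-hour exposure of cells in 96-well plates to compound at five concentrations. The concentration for 50% growth inhibition is given as GI50. Definition used: TGI = concentration required for complete inhibition of growth.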
System: HOP-92 NSCLC
Test: NCI-60 cell line screen, 48 h

| Structure (SMILES) | TGI |
| --- | --- |
| N#Cc1nc(Nc2cccc3ccccc23)sc1N | 52.3 µM |
| COc1cc([C@H]2Oc3cc(O)c4c(=O)cc(-c5ccccc5)oc4c3O[C@@H]2CO)ccc1O | 58.1 µM |
| O=C1C(Cl)N(c2ccc(Cl)cc2)C1c1c[nH]c2ccccc12 (stereo not given) | 45.3 µM |

System: HCT-15 colon
Test: NCI-60 cell line screen, 48 h

| Structure (SMILES) | TGI | GI50 |
| --- | --- | --- |
| Cc1ccc(NC(=O)C(=O)C(C(=O)c2ccc3ccccc3c2)C2OC(=O)c3ccccc32)cc1C (stereo not given) | 24.2 µM | – |
| CCC[CH2][Sn]1([CH2]CCC)[O]N=C(c2ccccc2)C(c2ccccc2)[O]1 (stereo not given) | 2.77 µM | 1.46 µM |
| N#Cc1nc(Nc2cccc3ccccc23)sc1N | > 100 µM | – |
| COc1cc([C@H]2Oc3cc(O)c4c(=O)cc(-c5ccccc5)oc4c3O[C@@H]2CO)ccc1O | > 100 µM | – |
| CCN(CC)CC1CCCCCCCCCCC1=O (stereo not given) | > 100 µM | – |

System: 786-0 renal
Test: NCI-60 cell line screen, 48 h

| Structure (SMILES) | TGI | GI50 |
| --- | --- | --- |
| Cc1ccc(NC(=O)C(=O)C(C(=O)c2ccc3ccccc3c2)C2OC(=O)c3ccccc32)cc1C (stereo not given) | 23.8 µM | – |
| CCC[CH2][Sn]1([CH2]CCC)[O]N=C(c2ccccc2)C(c2ccccc2)[O]1 (stereo not given) | 2.83 µM | 1.45 µM |
| O=S1(=O)C[C@H](O)[C@H](O)CS1 | > 100 µM | – |
| N#Cc1nc(Nc2cccc3ccccc23)sc1N | > 100 µM | – |
| COc1cc([C@H]2Oc3cc(O)c4c(=O)cc(-c5ccccc5)oc4c3O[C@@H]2CO)ccc1O | 61.2 µM | – |
| CCN(CC)CC1CCCCCCCCCCC1=O (stereo not given) | > 100 µM | – |

System: NCI-H23 lung
Test: NCI-60 cell line screen, 48 h

| Structure (SMILES) | TGI | GI50 |
| --- | --- | --- |
| Cc1ccc(NC(=O)C(=O)C(C(=O)c2ccc3ccccc3c2)C2OC(=O)c3ccccc32)cc1C (stereo not given) | 18 µM | – |
| CCC[CH2][Sn]1([CH2]CCC)[O]N=C(c2ccccc2)C(c2ccccc2)[O]1 (stereo not given) | 2.64 µM | 1.28 µM |
| O=S1(=O)C[C@H](O)[C@H](O)CS1 | > 100 µM | – |
| N#Cc1nc(Nc2cccc3ccccc23)sc1N | 47.2 µM | – |
| COc1cc([C@H]2Oc3cc(O)c4c(=O)cc(-c5ccccc5)oc4c3O[C@@H]2CO)ccc1O | 69.2 µM | – |
| CCN(CC)CC1CCCCCCCCCCC1=O (stereo not given) | > 100 µM | – |
| O=C1C(Cl)N(c2ccc(Cl)cc2)C1c1c[nH]c2ccccc12 (stereo not given) | 62.8 µM | – |

System: CCRF-CEM leukemia
Test: NCI-60 cell line screen, 48 h

| Structure (SMILES) | TGI | GI50 |
| --- | --- | --- |
| Cc1ccc(NC(=O)C(=O)C(C(=O)c2ccc3ccccc3c2)C2OC(=O)c3ccccc32)cc1C (stereo not given) | 51.3 µM | – |
| CCC[CH2][Sn]1([CH2]CCC)[O]N=C(c2ccccc2)C(c2ccccc2)[O]1 (stereo not given) | 2.42 µM | 0.29 µM |
| COc1cc([C@H]2Oc3cc(O)c4c(=O)cc(-c5ccccc5)oc4c3O[C@@H]2CO)ccc1O | > 100 µM | – |
| CCN(CC)CC1CCCCCCCCCCC1=O (stereo not given) | > 100 µM | – |
| O=C1C(Cl)N(c2ccc(Cl)cc2)C1c1c[nH]c2ccccc12 (stereo not given) | > 100 µM | – |

System: EKVX NSCLC
Test: NCI-60 cell line screen, 48 h

| Structure (SMILES) | TGI | GI50 |
| --- | --- | --- |
| Cc1ccc(NC(=O)C(=O)C(C(=O)c2ccc3ccccc3c2)C2OC(=O)c3ccccc32)cc1C (stereo not given) | > 100 µM | – |
| CCC[CH2][Sn]1([CH2]CCC)[O]N=C(c2ccccc2)C(c2ccccc2)[O]1 (stereo not given) | 3.01 µM | 1.16 µM |
| O=S1(=O)C[C@H](O)[C@H](O)CS1 | > 100 µM | – |
| CCN(CC)CC1CCCCCCCCCCC1=O (stereo not given) | > 100 µM | – |
| O=C1C(Cl)N(c2ccc(Cl)cc2)C1c1c[nH]c2ccccc12 (stereo not given) | 32.5 µM | – |

System: OVCAR-8 ovarian
Test: NCI-60 cell line screen, 48 h

| Structure (SMILES) | TGI | GI50 |
| --- | --- | --- |
| Cc1ccc(NC(=O)C(=O)C(C(=O)c2ccc3ccccc3c2)C2OC(=O)c3ccccc32)cc1C (stereo not given) | 66.2 µM | – |
| CCC[CH2][Sn]1([CH2]CCC)[O]N=C(c2ccccc2)C(c2ccccc2)[O]1 (stereo not given) | 3.96 µM | 1.87 µM |
| O=S1(=O)C[C@H](O)[C@H](O)CS1 | > 100 µM | – |
| N#Cc1nc(Nc2cccc3ccccc23)sc1N | > 100 µM | – |
| CCN(CC)CC1CCCCCCCCCCC1=O (stereo not given) | > 100 µM | – |
| O=C1C(Cl)N(c2ccc(Cl)cc2)C1c1c[nH]c2ccccc12 (stereo not given) | > 100 µM | – |

System: UACC-257 melanoma
Test: NCI-60 cell line screen, 48 h

| Structure (SMILES) | TGI | GI50 |
| --- | --- | --- |
| Cc1ccc(NC(=O)C(=O)C(C(=O)c2ccc3ccccc3c2)C2OC(=O)c3ccccc32)cc1C (stereo not given) | 42.4 µM | – |
| CCC[CH2][Sn]1([CH2]CCC)[O]N=C(c2ccccc2)C(c2ccccc2)[O]1 (stereo not given) | 4.51 µM | 2.02 µM |
| O=S1(=O)C[C@H](O)[C@H](O)CS1 | > 100 µM | – |
| N#Cc1nc(Nc2cccc3ccccc23)sc1N | 41.1 µM | – |
| CCN(CC)CC1CCCCCCCCCCC1=O (stereo not given) | > 100 µM | – |
| O=C1C(Cl)N(c2ccc(Cl)cc2)C1c1c[nH]c2ccccc12 (stereo not given) | 31.6 µM | – |
